Source: patent US12257233B2, “Methods” (Ethismos Research, Inc., priority 2018, dated 2025)

Legend:
mouse = settings: second phase (15-30 minutes); cited from earlier work
5-HT2c receptor = molecular target: T1, 5-HT2c receptor (Homo sapiens, UniProt P28335); experiment: Functional activity at the 5-HT2c receptor; type: biochemical
T1 sequence (P28335 33-458): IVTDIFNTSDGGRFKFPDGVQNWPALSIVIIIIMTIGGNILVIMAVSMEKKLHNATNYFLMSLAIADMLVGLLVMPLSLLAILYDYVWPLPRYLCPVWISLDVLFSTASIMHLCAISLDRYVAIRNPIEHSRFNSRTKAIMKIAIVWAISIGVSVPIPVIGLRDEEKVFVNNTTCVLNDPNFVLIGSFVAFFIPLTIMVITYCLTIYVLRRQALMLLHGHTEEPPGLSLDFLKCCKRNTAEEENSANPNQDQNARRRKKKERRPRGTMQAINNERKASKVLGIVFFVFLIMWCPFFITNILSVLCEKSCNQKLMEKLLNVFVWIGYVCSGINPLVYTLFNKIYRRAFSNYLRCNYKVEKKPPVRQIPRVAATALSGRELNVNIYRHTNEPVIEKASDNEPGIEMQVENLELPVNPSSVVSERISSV
Source text: It has been proposed that serotonin exerts control of dopamine release in the ventral tegmental area via the 5-HT2c receptor. […] Opioid analgesic effects are manifested via the periaqueductal gray whereas reduction in self-administration results from a reduction in dopamine neurotransmission via 5-HT2c partial agonism in the ventral tegmental area.

[1] = test system: patients with major depressive disorder; settings: cited from earlier work
female rats = settings: doses of 5 and 10 mg/kg; cited from earlier work
rats = experiment: Hot plate test of analgesia; type: in vivo, rat
Source text: The hot plate test assesses antinociception in rats and mice (see, e.g., Basile, A. et al., “Characterization of the Antinociceptive Actions of Bicifadine in Models of Acute, Persistent, and Chronic Pain,” The Journal of Pharmacology and Experimental Therapeutics, 2007, 321 (3), 1208-1225).

Row | Compound | effectiveness compared with morphine in formalin paw lick test (mouse) | activity at the 5-HT2c receptor (5-HT2c receptor) | antidepressant activity [1] | food motivated responding (female rats) | antinociception in hot plate test, given alone (rats; amitifadine alone) | effect on the opioid's antinociception in hot plate test, in combination (rats; amitifadine in combination with an opioid)
1 | Cl.Clc1ccc([C@]23CNC[C@H]2C3)cc1Cl [(1R,5S)-1-(3,4-dichlorophenyl)-3-azabicyclo[3.1.0]hexane hydrochloride] | as effective as morphine |  |  |  |  | 
2 | Clc1ccc([C@]23CNC[C@H]2C3)cc1Cl [amitifadine, (1R,5S)-1-(3,4-dichlorophenyl)-3-azabicyclo[3.1.0]hexane] |  | partial agonist | significant antidepressant activity | does not significantly affect | antinociceptive | does not attenuate the opioid's antinociception, instead extending the opioid's antinociception
